Experimental data published in patent US20220107328A1, “METHODS OF TREATING LIVER DISEASES” (Camp4 Therapeutics Corporation, priority 2018, published 2022).
Values joined by “and” are separate entries in the source; they are usually repeats but may differ in a detail not shown here. Identical values can stand only once.

Columns and labels:
[1] = test system: PNPLA3 mRNA; test: qRT-PCR of PNPLA3 mRNA in compound-treated primary human hepatocytes; conditions: for Relative PNPLA3 mRNA levels: human hepatocytes; for PNPLA3 expression (in words): validation in human hepatocytes from a second donor; for Relative PINPLA3 mRNA: hepatocytes; for PNPLA3 mRNA, TGFβ and BMP pathway inhibitors (in words) / Relative PNPLA3 mRNA expression: primary human hepatocytes; for Relative PNLPA3 mRNA expression in HU4282 cells: Lonza HU4282 hepatocytes; for Relative PNPLA3 mRNA expression in Yecuris RMG cells: Yecuris RMG hepatocytes
[2] = test system: COL1A1 mRNA; test: qRT-PCR of COL1A1 mRNA in human primary hepatic stellate cells; type: cell-based; conditions: for Relative COL1A1 mRNA levels RQ: GSK3 inhibitors in hepatic stellate cells; for COL1A1 expression (in words): hepatic stellate cells, serial dilutions, 18 hours; for Primary Stellate cells COL1A1 (fold change in mRNA expression): 3 μM, relative to GAPDH
[3] = test system: PNPLA3 mRNA; test: qRT-PCR of PNPLA3 mRNA in human primary hepatic stellate cells; type: cell-based; conditions: for Relative PNPLA3 mRNA levels RQ: GSK3 inhibitors in hepatic stellate cells; for PNPLA3 mRNA levels (in words): hepatic stellate cells, serial dilutions, 18 hours; for Primary Stellate cells PNPLA3 (fold change in mRNA expression): 3 μM; for Relative PNPLA3 mRNA expression: stellate cells, Table 37; for Relative PNPLA3 nRNA expression in Stellate cells: 16 hours
[4] = test system: PCSK9 mRNA; test: qRT-PCR of PCSK9 mRNA in primary hepatocytes; type: cell-based, human; conditions: donor 4178, 3 μM, relative to GUSB
[5] = JAK inhibitors, 10 μM, qRT-PCR, mean of three replicates ± standard deviation
[6] = 3.3 uM, 16 hours, relative to GUSB
[7] = 10 uM, 16 hours, relative to GUSB
[8] = Syk pathway inhibitors, 10 μM, normalized to B2M, mean of three replicates ± standard deviation

Cc1cc(Nc2nc(N[C@@H](C)c3ncc(F)cn3)ncc2Cl)[nH]n1 [AZD1480]
Relative PNPLA3 mRNA levels [1, 5]: 0.69 ± 0.10
PNPLA3 expression (in words) ([1]; qRT-PCR): efficient downregulation of PNPLA3

CN1CCN(S(=O)(=O)c2ccc(-c3cnc(N)c(C(=O)Nc4cccnc4)n3)cc2)CC1 [AZD2858]
Relative COL1A1 mRNA levels RQ ([2]; 1 μM): 0.83
Relative COL1A1 mRNA levels RQ ([2]; 10 μM): 0.72
COL1A1 expression (in words) [2]: modestly decreased both PNPLA3 and COL1A1 in a dose dependent manner
Relative PNPLA3 mRNA levels RQ ([3]; 1 μM): 0.48
Relative PNPLA3 mRNA levels RQ ([3]; 10 μM): 0.72
PNPLA3 mRNA levels (in words) [3]: modestly decreased both PNPLA3 and COL1A1 in a dose dependent manner

Cc1cc([C@@H](C)Nc2ccccc2C(=O)O)c2nc(N3CCOCC3)cc(=O)n2c1 [AZD6482]
Primary Hepatocytes 4178 PCSK9 (fold change in mRNA expression) [4]: 0.56
Primary Stellate cells COL1A1 (fold change in mRNA expression) [2]: 1.20
Primary Stellate cells PNPLA3 (fold change in mRNA expression) ([3]; relative to GAPDH): 0.87

CC[C@@H]1C(=O)N(C)c2cnc(Nc3ccc(C(=O)NC4CCN(C)CC4)cc3OC)nc2N1C1CCCC1 [BI 2536]
Relative PINPLA3 mRNA ([1]; 10 uM): 0.38

O=C1Nc2cc(Br)ccc2/C1=C1/Nc2ccccc2/C1=N\O [BIO]
Relative COL1A1 mRNA levels RQ ([2]; 1 μM): 0.74
Relative COL1A1 mRNA levels RQ ([2]; 10 μM): 0.59
COL1A1 expression (in words) [2]: modestly decreased both PNPLA3 and COL1A1 in a dose dependent manner
Relative PNPLA3 mRNA levels RQ ([3]; 1 μM): 1.09
Relative PNPLA3 mRNA levels RQ ([3]; 10 μM): 0.54
PNPLA3 mRNA levels (in words) [3]: modestly decreased both PNPLA3 and COL1A1 in a dose dependent manner

O=C(NCCCNc1nc(Nc2cccc(NC(=O)N3CCCC3)c2)ncc1I)c1cccs1 [BX795]
Relative PNPLA3 mRNA levels ([1]; TBK1 inhibitor, concentration not given): 0.51±0.06

Nc1cc(C(F)(F)F)c(-c2cc(N3CCOCC3)nc(N3CCOCC3)n2)cn1 [Buparlisib (BKM120, NVP-BKM120)]
Relative PINPLA3 mRNA ([1]; 0.1 uM): 1.049
Relative PINPLA3 mRNA ([1]; 0.3 uM): 0.729
Relative PINPLA3 mRNA ([1]; 1 uM): 0.659
Relative PINPLA3 mRNA ([1]; 3 uM): 0.515

CCS(=O)(=O)N1CCN(c2ccc(Nc3ncc(C(N)=O)c(NC4CC4)n3)cc2)CC1 [Cerdulatinib]
Relative PNPLA3 mRNA levels [1, 5]: 0.82 ± 0.00

Cc1cnc(Nc2ccc(OCCN3CCCC3)cc2)nc1Nc1cccc(S(=O)(=O)NC(C)(C)C)c1 [Fedratinib (SAR302503, TG101348)]
Relative PINPLA3 mRNA ([1]; 10 uM): 0.25

O=C(Nc1nc2cccc(-c3ccc(CN4CCS(=O)(=O)CC4)cc3)n2n1)C1CC1 [Filgotinib]
Relative PNPLA3 mRNA levels [1, 5]: 1.07 ± 0.14
Relative PINPLA3 mRNA ([1]; 1 uM): 0.781
Relative PINPLA3 mRNA ([1]; 10 uM): 0.365

Cc1c(Cn2c(C)nc3c(C(=O)O)cc(N4CCOCC4)cc32)cccc1C(F)(F)F [GSK2636771]
Primary Hepatocytes 4178 PCSK9 (fold change in mRNA expression) [4]: 0.59
Primary Stellate cells COL1A1 (fold change in mRNA expression) [2]: 1.04
Primary Stellate cells PNPLA3 (fold change in mRNA expression) ([3]; relative to GAPDH): 1.06

Cc1cc(Nc2cc(CN3CCOCC3)c3nc(C)c(Cc4ccc(Cl)cc4F)n3n2)n[nH]1 [Gandotinib]
Relative PNPLA3 mRNA levels [1, 5]: 0.76 ± 0.13

Cl.NNc1nncc2ccccc12 [Hydralazine HCI]
Relative PINPLA3 mRNA ([1]; 10 uM): 0.25

COc1cc2ncnc(Nc3ccc(O)cc3)c2cc1OC [JANEX-1]
Relative PNPLA3 mRNA levels [1, 5]: 0.78 ± 0.11

COc1cc(-c2cc(-c3cccc(O)c3)cnc2N)cc(OC)c1OC [K02288]
PNPLA3 mRNA, TGFβ and BMP pathway inhibitors (in words) [1]: did not decrease PNPLA3 mRNA in primary human hepatocytes
Relative PNPLA3 mRNA expression ([1]; 3.3 uM, Table 35): 1.259 ± 0.3268
Relative PNPLA3 mRNA expression ([1]; 10 uM, Table 35): 2.687 ± 0.4146

c1ccc2c(-c3cnn4cc(-c5ccc(N6CCNCC6)cc5)cnc34)ccnc2c1 [LDN193189]
Relative PNPLA3 mRNA expression ([3]; 0.01 uM): 0.95 ± 0.09
Relative PNPLA3 mRNA expression ([3]; 0.1 uM): 0.83 ± 0.12
Relative PNPLA3 mRNA expression ([3]; 1 uM): 0.76 ± 0.07
Relative PNPLA3 mRNA expression ([3]; 10 uM): 9.25

c1cc(-c2cnn3cc(-c4ccc(N5CCNCC5)cc4)cnc23)c2cccnc2c1 [LDN212854, LDN-212854]
PNPLA3 mRNA, TGFβ and BMP pathway inhibitors (in words) [1]: did not decrease PNPLA3 mRNA in primary human hepatocytes
Relative PNPLA3 mRNA expression ([1]; 3.3 uM, Table 35): 1.095 ± 0.1332
Relative PNPLA3 mRNA expression ([1]; 10 uM, Table 35): 0.9339 ± 0.04093
Relative PNPLA3 mRNA expression ([3]; 0.01 uM): 0.92 ± 0.22
Relative PNPLA3 mRNA expression ([3]; 0.1 uM): 1.02 ± 0.16
Relative PNPLA3 mRNA expression ([3]; 1 uM): 0.67 ± 0.12
Relative PNPLA3 mRNA expression ([3]; 10 uM): 7.43 ± 3.91

N#CCNC(=O)c1ccc(-c2ccnc(Nc3ccc(N4CCOCC4=O)cc3)n2)cc1 [M21]
Relative PNLPA3 mRNA expression in HU4282 cells [1, 6]: 0.213 ± 0.028
Relative PNLPA3 mRNA expression in HU4282 cells [1, 7]: 0.138 ± 0.015
PNPLA3 mRNA expression (in words) ([1]; Yecuris RMG and Lonza HU4282 hepatocytes, 16 hours, relative to GUSB): reduced PNPLA3 mRNA expression in a dose dependent manner
Relative PNPLA3 mRNA expression in Yecuris RMG cells [1, 6]: 0.910 ± 0.068
Relative PNPLA3 mRNA expression in Yecuris RMG cells [1, 7]: 0.165 ± 0.018
PNPLA3 mRNA expression (in words) ([3]; stellate cells ST1 and ST8, 16 hours, relative to GAPDH): reduced PNPLA3 mRNA expression, with the most significant decrease after treatment with 3.3 μM M21
Relative PNPLA3 nRNA expression in Stellate cells ([3]; stellate cells donor ST1, 3.3 uM, relative to GAPDH): 0.26 ± 0.11
Relative PNPLA3 nRNA expression in Stellate cells ([3]; stellate cells donor ST1, 10 uM, relative to GAPDH): 0.54 ± 0.10
Relative PNPLA3 nRNA expression in Stellate cells ([3]; stellate cells donor ST8, 3.3 uM, relative to GAPDH): 0.31 ± 0.01
Relative PNPLA3 nRNA expression in Stellate cells ([3]; stellate cells donor ST8, 10 uM, relative to GAPDH): 0.49 ± 0.05

CNS(=O)(=O)C[C@H]1CC[C@H](N(C)c2ncnc3[nH]ccc23)CC1 [Oclacitinib]
Relative PNPLA3 mRNA levels [1, 5]: 0.56 ± 0.03
PNPLA3 expression (in words) ([1]; qRT-PCR): efficient downregulation of PNPLA3

C=CC(=O)N1C[C@H](COc2nc(Nc3cnn(C)c3)nc3[nH]cc(Cl)c23)[C@@H](OC)C1 [PF-06459988]
Relative PINPLA3 mRNA ([1]; 1 uM): 0.965
Relative PINPLA3 mRNA ([1]; 10 uM): 0.398

COc1ccc(COc2cc3oc(=O)c4cc(C(C)O)ccc4c3cc2OC)cc1 (centres unmarked) [Palomid 529 (P529)]
Primary Hepatocytes 4178 PCSK9 (fold change in mRNA expression) [4]: 1.05
Primary Stellate cells COL1A1 (fold change in mRNA expression) [2]: 1.10
Primary Stellate cells PNPLA3 (fold change in mRNA expression) ([3]; relative to GAPDH): 0.97

NCCC(O)(P(=O)(O)O)P(=O)(O)O [Pamidronate]
Relative PINPLA3 mRNA ([1]; 10 uM): 0.2

C/C=C1\NC(=O)[C@H]2CSSCC/C=C/[C@H](CC(=O)N[C@H](C(C)C)C(=O)N2)OC(=O)[C@H](C(C)C)NC1=O [Romidepsin (FK228, Depsipeptide)]
Relative PINPLA3 mRNA ([1]; 10 uM): 0.3

N#CC[C@H](C1CCCC1)n1cc(-c2ncnc3[nH]ccc23)cn1 [Ruxolitinib]
Relative PNPLA3 mRNA levels [1, 5]: 0.89 ± 0.17

CN1C/C=C/CCOc2cccc(c2)-c2ccnc(n2)Nc2cccc(c2)C1 [SB1317]
Relative PINPLA3 mRNA ([1]; 1 uM): 0.400
Relative PINPLA3 mRNA ([1]; 10 uM): 0.413

CC1(C)CN(C(=O)c2ccc(-c3cccc4nc(NC(=O)C5CC5)nn34)cc2)C1 [Solcitinib]
Relative PNPLA3 mRNA levels [1, 5]: 1.10 ± 0.01

Cc1cccc(-c2[nH]c(CNc3ccccc3F)nc2-c2ccc3ncnn3c2)n1 [TEW-7197]
Relative PNPLA3 mRNA expression ([1]; 0.04 uM, Table 34): 1.219 ± 0.186
Relative PNPLA3 mRNA expression ([1]; 0.12 uM, Table 34): 0.822 ± 0.152
Relative PNPLA3 mRNA expression ([1]; 0.37 uM, Table 34): 0.613 ± 0.035
Relative PNPLA3 mRNA expression ([1]; 3.3 uM, Table 34): 0.560 ± 0.134

Nc1nc(N)c2nc(-c3cccc(O)c3)c(-c3cccc(O)c3)nc2n1 [TG100-115]
Primary Hepatocytes 4178 PCSK9 (fold change in mRNA expression) [4]: 0.69
Primary Stellate cells COL1A1 (fold change in mRNA expression) [2]: 1.11
Primary Stellate cells PNPLA3 (fold change in mRNA expression) ([3]; relative to GAPDH): 1.07

CC[C@@H]1CN(C(=O)NCC(F)(F)F)C[C@@H]1c1cnc2cnc3[nH]ccc3n12 [Upadacitinib]
Relative PNPLA3 mRNA levels [1, 5]: 0.93 ± 0.15

c1cn2cc(-c3ccc4cn[nH]c4c3)nc(Nc3ccc(N4CCOCC4)cc3)c2n1 [entospletinib]
Relative PNPLA3 mRNA levels [1, 8]: 0.67 ± 0.05

COC(=O)C1=C(C#N)NC(C)=C(C(=O)OC(C)C)C1c1cccc([N+](=O)[O-])c1 (centres unmarked) [nilvadipine]
Relative PNPLA3 mRNA levels [1, 8]: 0.61 ± 0.08

TGFB1
Relative PNPLA3 mRNA expression ([3]; 0.001 ug/ML): 0.93 ± 0.11 and 1.50 ± 0.17
Relative PNPLA3 mRNA expression ([3]; 0.01 ug/ML): 2.35 ± 0.39 and 1.40 ± 0.10
